The text below walks through data of patent US20240247048A1 (EMORY UNIVERSITY, priority 2021, published 2024).

Entries after “also recorded” stand apart in the source; their conditions may differ.

Data set [1] can be described thus: toxicity in immunologically naive C57BL/6 mice. In kind it is in vivo. Conditions: for H&E staining of colon and lung tissue: FIG. 29c-29d; for overall survival, activity levels or weight of mice: daily s.c. for 10 days, same dose as anti-cancer protocol, FIG. 29a; for toxicity in C57BL/6 mice: daily s.c. injection for 10 days, analyzed day 11, FIG. 29. The text has this:
C57BL/6 mice received daily subcutaneous injection of ANT008 or ANT308 for 10 days (n=5 per group) and analyzed for evidence of toxicity on day 11. (FIG. 29A) Body weight in grams during the duration of drug administration; (FIG. 29B) Number of WBCs, RBCs and platelets in blood as per complete blood count (left) proportions of T cells, B cells, NK cells, DCs and MDSCs in spleen as identified by flow cytometry (right) are plotted. Representative H&E stained sections of (FIG. 29C) colon (top), lungs (bottom) and (FIG. 29D) liver are shown. Arrows in FIG. 29D show the focal hepatic lesions in liver. […] C57BL/6 mice received daily subcutaneous injection of 30 ug of ANT308 (n=6) or a combination of 30 ug of ANT308 daily along with 200 ug of anti-PD1 every 3 days (n=6), for a duration of 4 days. Mice receiving scrambled peptide and isotype IgG served as control (n=4). (FIG. 29E) Weight of the mice, (FIG. 29F) complete blood count (CBC) and (FIG. 29G) serum chemistries after 4 days of treatment are plotted. P values in FIGS. 29B, 29E, 29F, and 29G were calculated by ANOVA followed by Dunnett's post-test. Error bars represent mean and standard deviation. *p<0.05, **p<0.01.
To evaluate the effect of VIP-R-mediated signaling inhibition on the growth of PDAC tumors in vivo, three different murine PDAC tumors (KPC-Luc, MT5 and Panc02) were implanted in syngeneic immunocompetent C57BL/6 mice. After tumors were palpable, mice were randomly allocated to treatment with VIP-R antagonists and/or anti-PD-1 monoclonal antibody, or control groups that received scrambled peptide or isotype-matched IgG. […] In addition to the antitumor efficacy, the safety of VIP-R antagonists in immunologically naïve mice was confirmed (FIGS. 29a-29g).
Histology. All tissues for histology were fixed at 4° C. for 2-3 days in 4% paraformaldehyde in PBS, embedded in paraffin and cut into 5-μm thick sections. Slides were deparaffinized with EZ-Prep (#05279771001, Ventana, Tucson, AZ) and then were antigen retrieved for 64 minutes with CC1 reagent (#950-500, Ventana, Tucson, AZ). Mouse anti-VPAC1 and anti-VPAC2 from Sigma Aldrich (St. Louis, MO) diluted at 1:500 or rabbit anti-cytokeratin-19 (Abcam, Cambridge, MA) diluted at 1:500 were applied and incubated for 40 minutes. DISCOVERY OmniMap anti-mouse or anti-rabbit HRP was applied and incubated for 12 minutes. The detection was completed in combination with DISCOVERY ChromoMap DAB kit as per manufacturer's recommendations. Pancreas harvested from mice with orthotopically implanted KPC-Luc tumors or colon, liver and inflated lungs harvested from naïve C57BL/6 mice receiving ANT008 or ANT308 were formalin-fixed and paraffin embedded before being stained with H&E (Leica 560 MX, Wetzlar, Germany) or Masson's Trichrome (Polyscientific Inc., Bay Shore, NY). All slides were dehydrated, cover-slipped and scanned on Hamamatsu Nanozoomer 2.0 HT at 40× and reviewed by a pathologist.

Data set [2] relates to C1498 acute myeloid leukemia cells. As to the kind of experiment: survival of mice engrafted with C1498 acute myeloid leukemia. The class given is in vivo, mouse. Also noted: percentage of survival: concentration or dose not given beside the values. Conditions: for Median survival time / Percentage alive day 60: 1 x 10E6 C1498 i.v. on day 0, 10 ug peptide s.c. daily on days 6-12. How it is done: B6 (CD45.2, H-2K^b) mice were administered C1498 1×10^6/mouse through tail vein. […] Survival of the mice was observed daily. Data were pooled from 3 replicated experiments.
B6 (CD45.2, H-2K^b) mice were administered C1498 1×10^6/mouse through tail vein. […] Survival of the mice was observed daily. Survival of the mice were pooled from 3 replicated experiments and analyzed by log-rank test compared with the survival of mice treated with scrambled peptide.
B6 SJL (CD45.1, H-2K^b) mice were administered C1498 (CD45.2 H-2K^b) 1×10^6/mouse through tail vein. […] The mice were bled weekly from the submandibular vein, starting from day 6, prior to the administration of peptides. Antibodies to CD45.2 identified myeloid leukemia cells and antibodies to CD45.1 identified murine leukocytes of the host.
(§1) VIP-related peptides tested in silico for predicted binding affinities to human VPAC1 and VPAC2 (Creative Biolabs). Docking scores show predicted free energy change associated with peptide binding. Note that a greater negative score is predicted to be associated with higher binding affinity. Based upon an initial screen of 300 peptides for binding affinity to VPAC1 and screening a subset of 100 peptides for binding affinity to VPAC2, a select group of peptides were synthesized and tested for their ability to stimulate proliferation of luciferase+ mouse T cells in vitro. The lowest concentration of peptide that led to maximal luminescence is shown. Proliferation data represents the relative level of luminescence from quadruplicate wells containing 1×10E5 T cells/well in a 96 well tissue culture plate stimulated for 96 hours with plate-bound anti-CD3 antibodies. Confirmatory in vivo testing of select peptides was then performed based upon their ability to induce autologous anti-leukemia responses in C57Bl/6 mice that had been previously injected with 1×10E6 C1498 acute myeloid leukemia cells. Leukemia cells were injected on day 0, 10 ug peptide was injected s.c. daily on days 6-12. The predicted binding affinity to VPAC1 and/or VPAC2 was associated with enhanced activity in stimulating mouse T cell proliferation and anti-leukemia activity in mice.
To test the ability of the disclosed VIP-R antagonists to effect survival to acute myeloid leukemia survival, B6 (CD45.2, H-2K^b) mice were administered C1498 1×10^6/mouse through tail vein. […] Survival of the mice was observed daily.

In data set [3] the test system is luciferase+ mouse T cells. As to the kind of experiment: proliferation of luciferase+ mouse T cells in vitro (plate-bound anti-CD3, luminescence). In kind it is cell-based. Conditions: 96 hours; for lowest concentration of peptide that led to maximal luminescence: luc+ T cell proliferation, plate-bound anti-CD3; for luc+ T cell proliferation: relative luminescence, quadruplicate wells, plate-bound anti-CD3, daily addition of peptide, at the concentration in brackets.
From the text: as §1

As for KPRRPYTDNYTRLRKQMAVKKYLNLILN [ANT008], in data set [1], the “H&E staining of colon and lung tissue” value is listed as “did not show lymphocytic infiltrates or histopathology to suggest auto-immunity”; the “overall survival, activity levels or weight of mice” value is reported as “did not affect”; the “toxicity in C57BL/6 mice” value was “no adverse toxicity”. Further, in data set [2], the “Median survival time” value is recorded as 35 days and the “Percentage alive day 60” value stood at 16%. Also, the percentage of survival in data set [2] (FIG. 3, leukemia-bearing mice treated with peptide) is listed as 16%. In data set [3], the “lowest concentration of peptide that led to maximal luminescence” value came out at 1 µM and the “luc+ T cell proliferation” value came out at 185% + 24%.
On to KPRRPYTSDYTRLRKQMAVKKYLNLILN [ANT308], for which, in data set [1], the “H&E staining of colon and lung tissue” value was “did not show lymphocytic infiltrates or histopathology to suggest auto-immunity”; the “overall survival, activity levels or weight of mice” value is listed as “did not affect”; the “toxicity in C57BL/6 mice” value was “no adverse toxicity”. Moreover, in data set [2], the “Median survival time” value is reported as 34 days and the “Percentage alive day 60” value is listed as 40%. For the same sequence, in data set [2] (FIGS. 39 and 40), the “clearance of C1498 leukemia and long-term survival” value is reported as “dose-dependent clearance; also recorded: schedule-dependent clearance”. Also, in data set [3], the “lowest concentration of peptide that led to maximal luminescence” value amounted to 3 µM and the “luc+ T cell proliferation” value came to 109% + 8%.
